In ChEMBL document CHEMBL4630901 (2021):
Activity calls are given as the source filed them. The rule behind the calls is not given here.

How the values were obtained:
[1] = molecular target: Alpha-2A adrenergic receptor (Homo sapiens, UniProt P08913); assay: GPCRScan assay: inhibition of Alpha2A; parameters: radioligand conc. used [nm] 1.0 – 3.0, parental cells stable MDCK
[2] = molecular target: 5-hydroxytryptamine receptor 3A (Homo sapiens, UniProt P46098); assay: GPCRScan assay: inhibition of 5-HT3; parameters: radioligand conc. used [nm] 1.0 – 2.0, parental cells HEKT
Sequence of 5-hydroxytryptamine receptor 3A (P46098 whole entry): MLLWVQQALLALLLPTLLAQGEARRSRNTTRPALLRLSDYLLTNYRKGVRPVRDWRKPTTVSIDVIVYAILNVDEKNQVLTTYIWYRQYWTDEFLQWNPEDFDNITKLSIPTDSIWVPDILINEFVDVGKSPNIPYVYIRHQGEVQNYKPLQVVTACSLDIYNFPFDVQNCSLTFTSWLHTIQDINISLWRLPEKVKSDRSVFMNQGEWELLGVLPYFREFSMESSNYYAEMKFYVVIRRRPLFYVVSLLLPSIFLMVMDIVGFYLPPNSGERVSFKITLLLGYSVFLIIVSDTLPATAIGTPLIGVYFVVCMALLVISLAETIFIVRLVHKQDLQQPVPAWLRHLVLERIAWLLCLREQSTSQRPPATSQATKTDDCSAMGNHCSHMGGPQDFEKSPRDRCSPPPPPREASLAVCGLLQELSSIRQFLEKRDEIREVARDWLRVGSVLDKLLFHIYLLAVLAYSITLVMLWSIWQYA

[3] = molecular target: Sigma intracellular receptor 2 (Homo sapiens, UniProt Q5BJF2); assay: GPCRScan assay: inhibition of Sigma 2; parameters: radioligand conc. used [nm] 5.0, parental cells HEKT
Sequence of Sigma intracellular receptor 2 (Q5BJF2 whole entry): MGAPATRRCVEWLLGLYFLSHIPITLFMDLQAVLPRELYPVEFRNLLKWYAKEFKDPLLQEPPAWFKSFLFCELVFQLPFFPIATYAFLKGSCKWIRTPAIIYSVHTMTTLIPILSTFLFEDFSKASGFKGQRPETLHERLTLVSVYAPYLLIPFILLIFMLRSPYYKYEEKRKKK

[4] = molecular target: Prostaglandin F2-alpha receptor (Homo sapiens, UniProt P43088); assay: Panlabs binding assay
Sequence of Prostaglandin F2-alpha receptor (Homo sapiens, UniProt P43088) (P43088 whole entry): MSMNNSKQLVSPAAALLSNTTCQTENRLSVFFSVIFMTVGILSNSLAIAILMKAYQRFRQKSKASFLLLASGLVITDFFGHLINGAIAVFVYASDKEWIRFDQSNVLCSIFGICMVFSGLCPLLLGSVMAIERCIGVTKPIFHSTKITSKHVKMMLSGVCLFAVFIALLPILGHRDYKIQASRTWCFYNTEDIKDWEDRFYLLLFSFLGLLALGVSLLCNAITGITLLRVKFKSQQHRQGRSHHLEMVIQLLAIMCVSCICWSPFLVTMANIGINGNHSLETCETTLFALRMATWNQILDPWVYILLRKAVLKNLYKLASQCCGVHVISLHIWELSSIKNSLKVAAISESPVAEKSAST

[5] = molecular target: Prostaglandin F2-alpha receptor (Mus musculus, UniProt P43117); assay: Bayer inhouse assay (mouse)
Sequence of Prostaglandin F2-alpha receptor (Mus musculus, UniProt P43117) (P43117 whole entry): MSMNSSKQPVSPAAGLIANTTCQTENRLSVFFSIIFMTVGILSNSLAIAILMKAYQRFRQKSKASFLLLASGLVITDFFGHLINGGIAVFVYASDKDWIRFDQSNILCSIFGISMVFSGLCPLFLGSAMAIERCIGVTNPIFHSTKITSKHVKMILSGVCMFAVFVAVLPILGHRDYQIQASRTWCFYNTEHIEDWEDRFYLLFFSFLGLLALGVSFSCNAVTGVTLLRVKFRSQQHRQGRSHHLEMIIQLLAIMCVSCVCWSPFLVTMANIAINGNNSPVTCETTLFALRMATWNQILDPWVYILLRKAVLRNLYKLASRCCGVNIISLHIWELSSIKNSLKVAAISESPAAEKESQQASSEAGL

[6] = molecular target: T1, Alpha-1A adrenergic receptor (Homo sapiens) (UniProt P35348); settings: Rattus norvegicus; Compound concentration 10.0 uM
T1 sequence (whole entry): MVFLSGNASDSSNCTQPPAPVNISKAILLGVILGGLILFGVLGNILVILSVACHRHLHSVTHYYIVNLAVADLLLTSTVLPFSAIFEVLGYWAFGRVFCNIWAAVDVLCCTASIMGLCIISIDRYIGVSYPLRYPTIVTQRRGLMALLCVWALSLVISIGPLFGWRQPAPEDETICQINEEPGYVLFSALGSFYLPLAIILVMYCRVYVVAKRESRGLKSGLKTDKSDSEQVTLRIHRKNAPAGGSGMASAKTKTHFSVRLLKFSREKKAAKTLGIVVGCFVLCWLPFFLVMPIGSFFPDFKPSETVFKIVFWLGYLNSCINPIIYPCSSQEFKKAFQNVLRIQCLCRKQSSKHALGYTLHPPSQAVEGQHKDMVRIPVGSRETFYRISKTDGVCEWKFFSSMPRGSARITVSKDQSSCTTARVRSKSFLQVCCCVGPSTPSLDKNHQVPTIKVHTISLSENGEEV

[7] = molecular target: T2, 5-hydroxytryptamine receptor 1A (Homo sapiens) (UniProt P08908); settings: Compound concentration 10.0 uM
T2 sequence (whole entry): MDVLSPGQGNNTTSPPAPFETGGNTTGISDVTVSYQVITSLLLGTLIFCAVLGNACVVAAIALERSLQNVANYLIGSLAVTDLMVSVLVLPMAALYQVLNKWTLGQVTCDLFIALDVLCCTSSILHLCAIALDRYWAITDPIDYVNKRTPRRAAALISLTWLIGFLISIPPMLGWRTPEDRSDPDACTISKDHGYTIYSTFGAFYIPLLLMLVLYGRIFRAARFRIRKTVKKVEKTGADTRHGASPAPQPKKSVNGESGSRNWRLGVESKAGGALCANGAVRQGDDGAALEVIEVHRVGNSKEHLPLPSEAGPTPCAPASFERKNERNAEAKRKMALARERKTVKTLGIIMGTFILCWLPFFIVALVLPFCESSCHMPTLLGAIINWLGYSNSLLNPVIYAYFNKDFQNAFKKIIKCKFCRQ

[8] = molecular target: T3, Alpha-2A adrenergic receptor (Homo sapiens) (UniProt P08913); settings: Compound concentration 10.0 uM
T3 sequence (whole entry): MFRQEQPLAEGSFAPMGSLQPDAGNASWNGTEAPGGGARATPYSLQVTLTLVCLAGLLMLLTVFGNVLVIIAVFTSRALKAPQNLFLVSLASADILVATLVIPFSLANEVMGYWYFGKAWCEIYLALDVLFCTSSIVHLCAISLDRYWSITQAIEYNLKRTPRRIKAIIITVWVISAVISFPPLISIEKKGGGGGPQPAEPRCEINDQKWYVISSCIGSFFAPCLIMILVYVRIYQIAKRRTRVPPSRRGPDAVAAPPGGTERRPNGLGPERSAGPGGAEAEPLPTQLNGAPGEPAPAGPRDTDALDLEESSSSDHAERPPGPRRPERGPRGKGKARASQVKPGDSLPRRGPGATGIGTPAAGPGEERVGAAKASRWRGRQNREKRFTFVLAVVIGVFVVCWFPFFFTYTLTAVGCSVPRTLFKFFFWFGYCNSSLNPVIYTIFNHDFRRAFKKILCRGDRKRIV

[9] = molecular target: Purinergic P2Y (Rattus norvegicus) (UniProt O35811+Q9EPX4+P49651+Q63371+P41232+O35881+Q6GUG4); settings: Compound concentration 10.0 uM
[10] = molecular target: Glutamate NMDA receptor (Rattus norvegicus) (UniProt P35439+Q00959+Q00960+Q00961+Q62645+Q8VHN2+Q9R1M7); settings: Compound concentration 10.0 uM
[11] = molecular target: Beta-2 adrenergic receptor (Homo sapiens) (UniProt P07550); settings: Compound concentration 10.0 uM
Sequence of Beta-2 adrenergic receptor (Homo sapiens) (P07550 whole entry, looked up): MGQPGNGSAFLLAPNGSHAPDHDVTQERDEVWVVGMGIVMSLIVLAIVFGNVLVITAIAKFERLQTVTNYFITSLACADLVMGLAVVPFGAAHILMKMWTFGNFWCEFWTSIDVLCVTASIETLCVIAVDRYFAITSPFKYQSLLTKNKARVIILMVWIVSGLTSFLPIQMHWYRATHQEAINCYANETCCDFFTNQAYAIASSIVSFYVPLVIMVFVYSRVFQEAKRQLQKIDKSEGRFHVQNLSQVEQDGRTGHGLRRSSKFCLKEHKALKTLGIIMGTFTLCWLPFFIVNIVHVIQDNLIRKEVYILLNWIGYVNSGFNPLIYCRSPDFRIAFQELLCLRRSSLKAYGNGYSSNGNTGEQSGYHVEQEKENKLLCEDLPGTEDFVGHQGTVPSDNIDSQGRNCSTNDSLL

[12] = molecular target: Adenosine Transporter (Cavia porcellus) (UniProt H0V4R7+H0UUG1+H0V3Z5); assay: Inhibition of Transporter, Adenosine at compound concentration of 10.0 uM in the Eurofins-Panlabs radioligand binding assay (Eurofins_assay_202000); assay type: protein assay; parameters: ligand concentration 0.5 nM, non-specific ligand with concentration 5 uM Nitrobenzylthioinosine, incubation time 30 min, incubation temperature 25 C; settings: Compound concentration 10.0 uM
[13] = molecular target: T4, 5-hydroxytryptamine receptor 2C (Homo sapiens) (UniProt P28335); settings: Compound concentration 10.0 uM
T4 sequence (whole entry): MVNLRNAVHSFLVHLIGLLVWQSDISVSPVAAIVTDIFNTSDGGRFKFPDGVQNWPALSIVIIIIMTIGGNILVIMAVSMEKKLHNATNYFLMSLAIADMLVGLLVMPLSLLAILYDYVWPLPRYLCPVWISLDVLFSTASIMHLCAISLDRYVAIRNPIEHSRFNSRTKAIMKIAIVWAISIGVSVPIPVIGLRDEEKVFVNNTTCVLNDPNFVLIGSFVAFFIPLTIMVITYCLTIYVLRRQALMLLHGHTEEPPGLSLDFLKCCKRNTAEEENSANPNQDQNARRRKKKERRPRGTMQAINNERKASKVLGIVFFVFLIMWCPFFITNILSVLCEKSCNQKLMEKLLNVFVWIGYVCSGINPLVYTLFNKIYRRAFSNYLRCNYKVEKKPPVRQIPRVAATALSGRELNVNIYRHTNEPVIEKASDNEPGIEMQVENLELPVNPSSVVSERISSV

[14] = molecular target: D(1A) dopamine receptor (Homo sapiens) (UniProt P21728); settings: Compound concentration 10.0 uM
Sequence of D(1A) dopamine receptor (Homo sapiens) (P21728 whole entry): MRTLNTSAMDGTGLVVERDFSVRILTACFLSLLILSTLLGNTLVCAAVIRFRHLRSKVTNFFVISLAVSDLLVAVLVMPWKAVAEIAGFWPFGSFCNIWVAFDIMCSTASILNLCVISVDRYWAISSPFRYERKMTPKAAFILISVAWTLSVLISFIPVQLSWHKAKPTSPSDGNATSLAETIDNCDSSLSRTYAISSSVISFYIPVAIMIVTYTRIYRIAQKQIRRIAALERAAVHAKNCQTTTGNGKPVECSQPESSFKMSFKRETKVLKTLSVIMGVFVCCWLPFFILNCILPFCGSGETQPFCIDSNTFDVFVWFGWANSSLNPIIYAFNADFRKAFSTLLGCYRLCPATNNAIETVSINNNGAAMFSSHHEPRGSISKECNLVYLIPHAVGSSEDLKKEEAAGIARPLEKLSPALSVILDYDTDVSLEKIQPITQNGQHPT

[15] = molecular target: Adenosine receptor A2a (Homo sapiens) (UniProt P29274); settings: Compound concentration 10.0 uM
Sequence of Adenosine receptor A2a (Homo sapiens) (P29274 whole entry): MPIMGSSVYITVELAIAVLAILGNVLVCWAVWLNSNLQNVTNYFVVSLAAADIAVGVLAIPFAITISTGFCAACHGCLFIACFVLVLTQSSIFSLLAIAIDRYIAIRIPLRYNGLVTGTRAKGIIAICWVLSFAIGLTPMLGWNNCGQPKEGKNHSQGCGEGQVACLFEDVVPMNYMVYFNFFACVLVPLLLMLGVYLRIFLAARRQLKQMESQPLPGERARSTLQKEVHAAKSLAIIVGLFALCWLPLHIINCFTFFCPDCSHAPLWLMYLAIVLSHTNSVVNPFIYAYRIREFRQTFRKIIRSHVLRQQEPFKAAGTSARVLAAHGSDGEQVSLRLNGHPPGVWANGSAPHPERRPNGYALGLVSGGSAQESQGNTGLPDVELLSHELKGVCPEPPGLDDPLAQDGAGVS

[16] = molecular target: GABA-A receptor; anion channel (Rattus norvegicus) (UniProt O09028+P15431+P18506+P18508+P19969+P20236+P23574+P23576+P28471+P28473+P30191+P62813+P63079+P63138+Q91ZM7+Q9ES14); settings: Compound concentration 10.0 uM

SMILES | Ki [1] [nM] | Ki ([2]; read-out: Ki) [nM] | Ki ([2]; read-out: pKi (converted)) [nM] | Ki [3] [nM] | IC50 [4] | IC50 [5] | inhibition [6] [%] | inhibition [7] [%] | inhibition [8] [%] | inhibition [9] [%] | inhibition [10] [%] | inhibition [11] [%] | inhibition [12] [%] | inhibition [13] [%] | inhibition [14] [%] | inhibition [15] [%] | inhibition [16] [%]
Cc1c(N2CCNCC2)nc2ccc(Br)cc2c1C(=O)NC[C@H](CCC(=O)O)c1ccccc1Cl [BAY-403] | 8470 | 585 | 537 | 1100 | > 10000 nM (not active) |  |  |  |  |  |  |  |  |  |  |  | 
Cc1c(N2CCCC2)nc2ccc(Br)cc2c1C(=O)NC[C@H](CCC(=O)O)c1ccccc1Cl [BAY-6672] |  |  |  |  |  | 5 nM (active) | 6 | 3 | 13 | 5 | -5 | 18 | 10 | 16 | 1 | 2 | 6
